According to patent publication US20180271863A1, “TARGETING P2 PURINERGIC RECEPTORS TO TREAT HEPATOCELLULAR CARCINOMA (HCC)” (Baylor College of Medicine, priority 2015, published 2018):
Entries after “also recorded” stand apart in the source; their conditions may differ.

Columns and labels:
Huh7 cells [1] = test: Western blotting for survivin in Huh7 cells; assay type: cell-based, human
Description: Total protein extracts were obtained by homogenizing cells in total lysis buffer and analyzed by Western blotting as described recently (Oncotarget 2015; 6:41162-41179). Next, Applicants tested whether extracellular nucleotide treatment may have an effect on YAP target genes important in hepatocellular carcinoma. […] Moreover, P2X3 antagonist (AF-353) pretreatment attenuated ATP mediated induction of survivin (FIG. 20G).

Huh7 cells [2] = test: BrdU incorporation (proliferation) in Huh7 cells; assay type: cell-based, human; details: for BrdU incorporation / BrdU positive nuclei: nucleotide 100 μM
Experimental: To determine whether P2 purinergic receptor activation influences HCC cell proliferation, BrdU incorporation was assessed in HCC cells maintained in SFM for 24 hours and treated with ATP for 24 hours. ATP treatment alone was sufficient to induce proliferation in each of these cell lines (Huh7, 34%; Hep3B, 46%; SNU-387, 47% and PLC/PRF/5, 24%), identifying nucleotides as liver cancer cell mitogens (FIG. 7A).
Extracellular ATP can be hydrolyzed to ADP and adenosine by ectonucleotidases at the plasma membrane. Therefore, Applicants tested the effects of ATPγS (non-hydrolyzable analog of ATP) or ADP (break down product of ATP) (100 μM) on Huh7 cell proliferation. ATPγS treatment alone was sufficient to induce BrdU incorporation as early as 12 hours (42%); maintained at 18 h (30%) and 24 h (29%) in Huh7 cells (FIG. 8). ADP was also able to independently increase the number of BrdU positive nuclei (12 h, 30%; 18 h, 35%; 24 h, 37%) (FIG. 8). Furthermore, ATP treatment (18 h) increased cell proliferation and viability in all four cell lines, as determined by MTT assay (Huh7, 65%; Hep3B, 81%; SNU-387, 90% and PLC/PRF/5, 43%) (FIG. 7B).
(§1) Normal human primary hepatocytes isolated from healthy adults (no known history of HCC) in suspension or freshly-frozen prior to shipment (Cryoport Systems, CA) were purchased from Triangle Research Labs, NC. Fresh hepatocytes were plated on collagen-coated tissue culture plates or glass coverslips in Williams E complete media with additives (10% fetal bovine serum, 2 mM glutamine, […] insulin, 4 ng/ml glucagon, […] transferrin, 2.5 ng/ml sodium selenite, 10,000 U/ml penicillin, […] streptomycin, 50 g/ml gentamycin) for 3 h to ensure hepatocyte adherence to plates. Subsequently, hepatocytes were maintained in Williams E minimal media free from serum and growth factors for 24 h prior to treatment. Human hepatocellular carcinoma derived Huh7, and Hep3B, were cultured in Minimum Essential Medium Eagle (MEM); SNU-387 was cultured in Roswell Park Memorial Institute (RPMI) medium and PLC/PRF/5 cultured in Dulbecco's Modified Eagle's medium (DMEM). All maintenance culture media were supplemented with 10% fetal bovine serum (FBS), L-Glutamine (2 mM), penicillin (100 units/ml) and streptomycin ([…]) at 37° C. and 5% CO2. Cells were maintained in serum free media (containing 2 mM L-Glutamine, 100 units/ml penicillin and (100 mg/ml)) streptomycin for 24 h prior to treatment.
(§2) Formalin-fixed and paraffin embedded liver sections from HCC patients were analyzed by immunohistochemistry with anti-P2X3 antibody (Abcam, Cambridge, Mass.). HCC cells were grown on glass coverslips; BrdU (10 μM, Roche, Indianapolis, Ind.) was added to culture media for 1 h prior to fixation (cold acetone:methanol, 1:1) and stained using anti-BrdU antibody (DAKO, Carpinteria, Calif.) and DAB Peroxidase Substrate Kit (Vector Labs, Burlingame, Calif.), according to manufacturer's instructions. Counterstaining was done with hematoxylin. BrdU positive cells were counted and expressed as a percentage of the total number of cells in ten randomly selected high-power fields (20×) per coverslips.

[3] = system: Huh7 cells overexpressing P2X3; test: BrdU incorporation in Huh7 cells transfected with P2X3 or pCMV6 vector; assay type: cell-based, human
Experimental: as §2, with “Thereafter, these cells were treated with ATP+/-P2X3 antagonist, AF-353. […] Huh7 cells were maintained in MEM with 10% fetal bovine serum (FBS), 5% L-Glutamine and 5% Penicillin-streptomycin overnight. P2X3 or pCMV6 vector control plasmids (1 m) were transfected with Turbofectin 8.00 (Origene Technologies, Rockville, Md.) in MEM with 5% L-Glutamine. Media was […] hours, according to manufacturer's instructions. Formalin-fixed” for “Formalin-fixed”

Huh7 cells [4] = test: Western blotting of cyclin and CDK proteins in Huh7 cells; assay type: cell-based, human
Experimental: as §1
Total protein extracts were obtained by homogenizing cells in total lysis buffer (50 mM Tris-HCl, pH 7.5, 0.5 M NaCl, 2 mM EGTA, 2 mM EDTA, 1.0% Triton X-100, 0.25% Deoxycholate, 1 m/ml pepstatin, 1.0 m/ml leupeptin, 1.0 m/ml aprotinin, 1.0 mM phenylmethylsulfonyl fluoride, 1.0 mM Dithiothreitol, 2.0 mM activated Na3VO4, and 2.0 mM NaF) and centrifuging at 14,000 rpm for 10 min (4° C.). Equal amounts of total proteins as determined by BCA protein Assay (Pierce, Rockford, Ill.) were analyzed by Western blotting. Blots were probed with antibody specific for a-tubulin or GAPDH to ensure equal loading of proteins in each lane.

human hepatocytes = test: MTT assay of cell proliferation and viability, human hepatocytes; assay type: cell-based; details: 18 h treatment
Experimental: as §1, with “Cells were maintained in serum free media (containing 2 mM L-Glutamine, 100 units/ml penicillin and (100 mg/ml)) streptomycin for 24 h prior to treatment.” left out
Cell viability was determined using the 3-(4, 5-dimethylthiazol-2-yl)-2,5-diphenyltetrazolium (MTT, Sigma) assays. […] After shaking the plates for 30 min, the absorbance at 570 nm was measured (background subtraction at […]).

[5] = antagonist alone, serum-free conditions
[6] = transfected Huh7, ATP 100 μM, 24 h

Structure (SMILES): COc1cc(C(C)C)c(Oc2cnc(N)nc2N)cc1I [AF-353]
- effect on ATP mediated induction of survivin (Huh7 cells [1]; AF-353 pretreatment): attenuated
- effect on ATP-mediated increase in BrdU incorporation (Huh7 cells [2]; AF-353 5 μM pre-treatment, ATP 100 μM 24 hr): completely abolished; also recorded: attenuates
- effect on baseline BrdU-positive cells (Huh7 cells [2]; [5]): reduce
- effect on P2X3 mediated increase in proliferation (BrdU) ([3]; P2X3-overexpressing Huh7, AF-353 5 μM, 24 h): completely attenuated
- effect on ATP mediated increase in BrdU incorporation ([3]; transfected Huh7, AF-353 5 μM pre-treatment, ATP 100 μM 24 h): significantly attenuated
- effect on ATP-mediated induction of cyclin D3 and cyclin E expression (Huh7 cells [4]; AF-353 5 μM pre-treatment, ATP 24 h): completely attenuated
- effect on baseline cyclin protein expression (Huh7 cells [4]; [5]): reduce

Structure (SMILES): Nc1ncnc2c1ncn2[C@@H]1O[C@H](COP(=O)(O)OP(=O)(O)OP(O)(O)=S)[C@@H](O)[C@H]1O [ATPγS]
- survivin protein expression (Huh7 cells [1]; ATPγS treatment alone): 1.8 fold
- BrdU incorporation / BrdU positive nuclei (Huh7 cells [2]; 12 h): 42%
- BrdU incorporation / BrdU positive nuclei (Huh7 cells [2]; 18 h): 30%
- BrdU incorporation / BrdU positive nuclei (Huh7 cells [2]; 24 h): 29%
- increase in cell proliferation and viability (MTT) (human hepatocytes): 64%
- cyclin A protein expression (Huh7 cells [4]; ATPγS 18 h): 1.7 fold
- cyclin D3 protein expression (Huh7 cells [4]; ATPγS 18 h): 2.7 fold
- cyclin E protein expression (Huh7 cells [4]; ATPγS 18 h): 1.7 fold
- cyclin A protein expression (Huh7 cells [4]; ATPγS 24 h): 1.2 fold
- cyclin D3 protein expression (Huh7 cells [4]; ATPγS 24 h): 2.8 fold
- cyclin E protein expression (Huh7 cells [4]; ATPγS 24 h): 1.3 fold
- CDK2 protein expression (Huh7 cells [4]; ATPγS 30 h): 1.6 fold
- CDK4 protein expression (Huh7 cells [4]; ATPγS 30 h): 1.4 fold
- cyclin A protein expression (Huh7 cells [4]; ATPγS 30 h): 1.2 fold
- cyclin D3 protein expression (Huh7 cells [4]; ATPγS 30 h): 2.1 fold
- cyclin E protein expression (Huh7 cells [4]; ATPγS 30 h): 2.2 fold

Structure (SMILES): Nc1ncnc2c1ncn2[C@@H]1O[C@H](COP(=O)(O)OP(=O)(O)OP(=O)(O)O)[C@@H](O)[C@H]1O [ATP]
- proliferation (BrdU incorporation) induced by ATP (Huh7 cells [2]; SFM 24 hours, ATP 24 hours): 34%
- ATP mediated proliferation in P2X3-overexpressing cells vs cells transfected with only pCMV6 [3, 6]: significantly higher
- BrdU incorporation compared to the pCMV6 control [3, 6]: further increased
- increase in cell proliferation and viability (MTT) (human hepatocytes): 27%
- cyclin D3 protein expression (Huh7 cells [4]; ATP 24 hours, serum-free): 3.2 fold
